Biological target: T1, human recombinant GST-PAK1-KD protein (Homo sapiens, UniProt Q13153)
T1 construct: residues #249-545 of human PAK1, UniProtKP/Swiss Q13153; His6 (N); made in house; host or cells: Sf9 insect cells, pAcGP67 baculovirus expression vector
Assay: GST-PAK1-KD (kinase domain) biochemical assay, microfluidic mobility shift
Conditions: not given

T1 sequence (Q13153 249-545): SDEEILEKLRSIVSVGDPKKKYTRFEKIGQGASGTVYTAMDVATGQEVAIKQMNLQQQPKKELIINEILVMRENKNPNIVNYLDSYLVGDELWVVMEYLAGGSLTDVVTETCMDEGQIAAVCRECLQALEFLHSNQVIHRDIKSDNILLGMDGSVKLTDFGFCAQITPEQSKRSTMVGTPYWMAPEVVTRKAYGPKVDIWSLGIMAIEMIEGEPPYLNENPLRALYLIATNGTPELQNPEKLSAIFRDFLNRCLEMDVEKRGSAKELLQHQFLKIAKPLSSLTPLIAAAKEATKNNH

Structure (SMILES)	Ki [nM]
COc1n[nH]c2cccc(CN(C)c3nccc(Nc4cc(C5CC5)[nH]n4)n3)c12 [II-30, N^4-(5-cyclopropyl-1H-pyrazol-3-yl)-N^2-((3-methoxy-1H-indazol-4-yl)methyl)-N^2-methylpyrimidine-2,4-diamine]	50 to 250

Same assay, conditions: GST-PAK1-KD Inhibition Assay - Example 65; read-out: PAK1 inhibition Ki

Structure (SMILES)	Ki [nM]
Clc1c(CNc2nccc(Nc3cc(COC4CCC4)[nH]n3)n2)ccc2[nH]cnc12 [II-43, N^2-((4-Chloro-1H-benzo[d]imidazol-5-yl)methyl)-N^4-(5-(cyclobutoxymethyl)-1H-pyrazol-3-yl)pyrimidine-2,4-diamine]	284

Same assay, conditions: Table II, PAK1 Ki class; read-out: Ki

Structure (SMILES)	Ki [nM]
Cc1nc2c(CNc3nccc(Nc4cc(C5CC5)[nH]n4)n3)cc(Cl)cc2[nH]1 [II-17, N^2-((6-Chloro-2-methyl-1H-benzo[d]imidazol-4-yl)methyl)-N^4-(5-cyclopropyl-1H-pyrazol-3-yl)pyrimidine-2,4-diamine]	< 50
Cc1n[nH]c2cccc(CN(C)c3nccc(Nc4cc(C5CC5)[nH]n4)n3)c12 [II-19, N^4-(5-Cyclopropyl-1H-pyrazol-3-yl)-N^2-methyl-N^2-((3-methyl-1H-indazol-4-yl)methyl)pyrimidine-2,4-diamine]	< 50
C[C@@H](Oc1cc(Nc2ccnc(N(C)Cc3ccc4[nH]cnc4c3Cl)n2)n[nH]1)c1ccccc1 [II-21, (R)-N^2-((4-Chloro-1H-benzo[d]imidazol-5-yl)methyl)-N^2-methyl-N^4-(5-(1-phenylethoxy)-1H-pyrazol-3-yl)pyrimidine-2,4-diamine]	< 50
COc1n[nH]c2cccc(CNc3nccc(Nc4cc(C5CC5)[nH]n4)n3)c12 [II-22, N^4-(5-Cyclopropyl-1H-pyrazol-3-yl)-N^2-((3-methoxy-1H-indazol-4-yl)methyl)pyrimidine-2,4-diamine]	< 50
Cc1cc(CNc2ncc(F)c(Nc3cc(C4CC4)[nH]n3)n2)c2cn[nH]c2c1 [II-25, N^4-(5-Cyclopropyl-1H-pyrazol-3-yl)-5-fluoro-N^2-((6-methyl-1H-indazol-4-yl)methyl)-pyrimidine-2,4-diamine]	< 50
Fc1cc(CNc2nccc(Nc3cc(C4CC4)[nH]n3)n2)c2nc[nH]c2c1 [II-27, N^4-(5-Cyclopropyl-1H-pyrazol-3-yl)-N^2-((6-fluoro-1H-benzo[d]imidazol-4-yl)methyl)-pyrimidine-2,4-diamine]	50 to 250
Cc1cc(CNc2nccc(Nc3cc(C4CC4)[nH]n3)n2)c2nc[nH]c2c1 [II-28, N^4-(5-Cyclopropyl-1H-pyrazol-3-yl)-N^2-((6-methyl-1H-benzo[d]imidazol-4-yl)methyl)-pyrimidine-2,4-diamine]	50 to 250
Cc1nc2c(CNc3nccc(Nc4cc(C5CC5)[nH]n4)n3)cc(F)cc2[nH]1 [II-34, N^4-(5-Cyclopropyl-1H-pyrazol-3-yl)-N^2-((6-fluoro-2-methyl-1H-benzo[d]imidazol-4-yl)-methyl)pyrimidine-2,4-diamine]	50 to 250
CN(Cc1ccc2[nH]cnc2c1Cl)c1ncc(F)c(Nc2cc(C(F)(F)F)[nH]n2)n1 [II-39, N^2-((4-Chloro-1H-benzo[d]imidazol-5-yl)methyl)-5-fluoro-N^4-(5-(trifluoromethyl)-1H-pyrazol-3-yl)-N2-methylpyrimidine-2,4-diamine]	50 to 250
C[C@H](Nc1nccc(Nc2cc(C3CC3)[nH]n2)n1)c1cccc2[nH]cnc12 [II-41, (S)-N^2-(1-(1H-benzo[d]imidazol-4-yl)ethyl)-N^4-(5-cyclopropyl-1H-pyrazol-3-yl)pyrimidine-2,4-diamine]	50 to 250
Clc1c(CNc2nccc(Nc3cc(COC4CCC4)[nH]n3)n2)ccc2[nH]cnc12 [II-43, N^2-((4-Chloro-1H-benzo[d]imidazol-5-yl)methyl)-N^4-(5-(cyclobutoxymethyl)-1H-pyrazol-3-yl)pyrimidine-2,4-diamine]	50 to 250
Clc1cc(CNc2nccc(Nc3cc(C4CC4)[nH]n3)n2)c2nc[nH]c2c1 [II-44, N^2-((6-Chloro-1H-benzo[d]imidazol-4-yl)methyl)-N^4-(5-cyclopropyl-1H-pyrazol-3-yl)-pyrimidine-2,4-diamine]	< 50

Next, values leading:

Ki [nM]	Structure (SMILES)
< 50	C[C@H](Nc1nccc(Nc2cc(C3CC3)[nH]n2)n1)c1cc(F)cc2[nH]cnc12 [II-18, (S)-N^4-(5-cyclopropyl-1H-pyrazol-3-yl)-N^2-(1-(6-fluoro-1H-benzo[d]imidazol-4-yl)ethyl)pyrimidine-2,4-diamine]
< 50	Fc1ccc2[nH]ccc2c1CNc1nccc(Nc2cc(C3CC3)[nH]n2)n1 [II-20, N^4-(5-cyclopropyl-1H-pyrazol-3-yl)-N^2-((5-fluoro-1H-indol-4-yl)methyl)pyrimidine-2,4-diamine]
< 50	CC(C)N(Cc1ccc2[nH]cnc2c1)c1nccc(Nc2cc(C3CC3)[nH]n2)n1 [II-26, N^2-((1H-Benzo[d]imidazol-5-yl)methyl)-N^4-(5-cyclopropyl-1H-pyrazol-3-yl)-N^2-isopropylpyrimidine-2,4-diamine]
50 to 250	COc1cc(Nc2ccnc(N(C)Cc3ccc4[nH]cnc4c3Cl)n2)n[nH]1 [II-29, N^2-((4-Chloro-1H-benzo[d]imidazol-5-yl)methyl)-N^4-(5-methoxy-1H-pyrazol-3-yl)-N^2-methylpyrimidine-2,4-diamine]
50 to 250	Cc1cc2[nH]cnc2cc1[C@H](C)Nc1nccc(Nc2cc(C3CC3)[nH]n2)n1 [II-31, (S)-N^4-(5-Cyclopropyl-1H-pyrazol-3-yl)-N^2-(1-(6-methyl-1H-benzo[d]imidazol-5-yl)ethyl)pyrimidine-2,4-diamine]
50 to 250	Cc1nc2c(CNc3ncc(F)c(Nc4cc(C5CC5)[nH]n4)n3)cc(Cl)cc2[nH]1 [II-32, N^2-((6-Chloro-2-methyl-1H-benzo[d]imidazol-4-yl)methyl)-N^4-(5-cyclopropyl-1H-pyrazol-3-yl)-5-fluoropyrimidine-2,4-diamine]
50 to 250	COCCN(Cc1ccc2[nH]cnc2c1)c1nccc(Nc2cc(C3CC3)[nH]n2)n1 [II-35, N^2-((1H-benzo[d]imidazol-5-yl)methyl)-N^4-(5-cyclopropyl-1H-pyrazol-3-yl)-N^2-(2-methoxyethyl)pyrimidine-2,4-diamine]
50 to 250	CN(Cc1ccc2[nH]cnc2c1Cl)c1nccc(Nc2cc(OCc3ccccn3)[nH]n2)n1 [II-36]
50 to 250	C[C@H](Nc1nccc(Nc2cc(C3CC3)[nH]n2)n1)c1cc2nc[nH]c2cc1Cl [II-38, (S)-N^2-(1-(6-Chloro-1H-benzo[d]imidazol-5-yl)ethyl)-N^4-(5-cyclopropyl-1H-pyrazol-3-yl)pyrimidine-2,4-diamine]
50 to 250	C[C@H](Nc1nccc(Nc2cc(C3CC3)[nH]n2)n1)c1cc(F)cc2c1cnn2C [II-40, (S)-N^4-(5-cyclopropyl-1H-pyrazol-3-yl)-N^2-(1-(6-fluoro-1-methyl-1H-indazol-4-yl)ethyl)pyrimidine-2,4-diamine]
50 to 250	CN(Cc1ccc2[nH]cnc2c1Cl)c1ncc(F)c(Nc2cc(C(C)(C)C)[nH]n2)n1 [II-42, N^4-(5-tert-Butyl-1H-pyrazol-3-yl)-N^2-((4-chloro-1H-benzo[d]imidazol-5-yl)methyl)-5-fluoro-N^2-methylpyrimidine-2,4-diamine]
50 to 250	Cc1cc(Nc2ccnc(NCc3ccc4[nH]cnc4c3Cl)n2)n[nH]1 [II-46, N^2-((4-Chloro-1H-benzo[d]imidazol-5-yl)methyl)-N^4-(5-methyl-1H-pyrazol-3-yl)pyrimidine-2,4-diamine]
< 50	CNCCN(Cc1cc(F)cc2[nH]ncc12)c1nccc(Nc2cc(C3CC3)[nH]n2)n1 [II-47, N^4-(5-cyclopropyl-1H-pyrazol-3-yl)-N^2-((6-fluoro-1H-indazol-4-yl)methyl)-N^2-(2-(methylamino)ethyl)pyrimidine-2,4-diamine]
